Measurements taken from patent US10851067B2, “Kv7 channel activators compositions and methods of use” (Knopp Biosciences LLC, priority 2018, dated 2020).

Biological target: Kv7.2/7.3 (Homo sapiens, UniProt O43525+O43526)
Experiment: Kv7.2/7.3 Thallium Flux Assay
Type: cell-based
Design: host or cells: HEK cells, tetracycline-inducible expression
Settings: read-out: Kv7.2/7.3 Activity: EC50 of Kv7.2/Kv7.3 activation
Text: The Thallium Flux Assay is used as a surrogate indicator of potassium channel activity.
The experimental protocol was adapted from the FluxOR™ II Green Potassium Ion Channel Assay User Guide (Pub. No. MAN0016084, Invitrogen). Conditions were optimized for the Kv7.2/7.3 cell line.
The hKV7.2/7.3 cell line was obtained from Chantest (Cleveland, Ohio 44128) cat. #CT6147.
Kv7.2/7.3 cells were maintained in a media containing DMEM/F12; 50/50 (GIBCO cat. #11330), 10% Fetal Bovine Serum (FBS) (GIBCO cat. #26140), 100 units/mL Penicillin-Streptomycin (GIBCO cat. #15140), 0.005 mg/ml Blasticidin (SIGMA 15205), 0.5 mg/mL Geneticin (GIBCO cat. #10131), and 0.1 mg/mL Zeocin (GIBCO cat. #R25001). One day prior to experimentation, cells were plated in 96 well clear bottom plates (Corning cat. #353219) in a media without Blasticidin, Geneticin, or Zeocin. Channel expression was induced by adding tetracycline (Bioline cat. #BIO87030) at a final concentration of 10 ng/mL.
The test compound is diluted in a mixture of 0.1% DMSO/extracellular solution with an eight-point concentration range from 0.014 μM to 30 μM. Serial dilutions were made on a Biomek NXP (BECKMAN COULTER).
Measurement and Data Analysis:
A plate reader (Enspire, Perkin Elmer) is used to characterize the ion-channel modulating properties of novel compounds using an excitation wavelength of 475 nm and an emission wavelength of 530 nm. After a 15 sec baseline measurement, the stimulus buffer containing thallium and potassium is injected. A final endpoint measure is taken after 90 sec. Responses are normalized to positive control (retigabine, 30 µM max). Mean normalized responses at each concentration tested are fit to the standard Hill equation to generate an EC50 and maximal response.

SMILES | EC50 [nM]
CC(C)(C)n1c(NC(=O)CC2CC(F)(F)C2(F)F)nc2cc(F)ccc21 (single isomer, unassigned) [Example 528, N-(1-(tert-butyl)-5-fluoro-1H-benzo[d]imidazol-2-yl)-2-(2,2,3,3-tetrafluorocyclobutyl)acetamide] | < 1000
CC(C)(C)n1c(NC(=O)CC2CC(F)(F)C2(F)F)nc2cc(F)ccc21 (single isomer, unassigned) [Example 529, N-(1-(tert-butyl)-5-fluoro-1H-benzo[d]imidazol-2-yl)-2-(2,2,3,3-tetrafluorocyclobutyl)acetamide] | < 1000
CC(C)(C)n1c(NC(=O)CC2CC(F)(F)C2(F)F)nc2cc(F)cc(F)c21 (single isomer, unassigned) [Example 532, N-(1-(tert-butyl)-5,7-difluoro-1H-benzo[d]imidazol-2-yl)-2-(2,2,3,3-tetrafluorocyclobutyl)acetamide] | < 1000
CC(C)(C)n1c(NC(=O)CC2CC(F)(F)C2(F)F)nc2cc(F)c(Cl)cc21 (single isomer, unassigned) [Example 535, N-(1-(tert-butyl)-6-chloro-5-fluoro-1H-benzo[d]imidazol-2-yl)-2-(2,2,3,3-tetrafluorocyclobutyl)acetamide] | < 1000
CC1(n2c(NC(=O)CC3CC(F)(F)C3(F)F)nc3ccc(F)c(C#N)c32)CCC1 (single isomer, unassigned) [Example 536, N-(7-cyano-6-fluoro-1-(1-methylcyclobutyl)-1H-benzo[d]imidazol-2-yl)-2-(2,2,3,3-tetrafluorocyclobutyl)acetamide] | < 1000
CC1(n2c(NC(=O)CC3CC(F)(F)C3(F)F)nc3ccc(F)c(C#N)c32)CCC1 (single isomer, unassigned) [Example 537, N-(7-cyano-6-fluoro-1-(1-methylcyclobutyl)-1H-benzo[d]imidazol-2-yl)-2-(2,2,3,3-tetrafluorocyclobutyl)acetamide] | < 1000
CC1(n2c(NC(=O)CC3CC(F)(F)C3(F)F)nc3cc(F)c(Cl)cc32)CCC1 (single isomer, unassigned) [Example 539, N-(6-chloro-5-fluoro-1-(1-methylcyclobutyl)-1H-benzo[d]imidazol-2-yl)-2-(2,2,3,3-tetrafluorocyclobutyl)acetamide] | < 1000
CC(C(=O)Nc1nc2cc(F)c(F)cc2n1C1(C)CCC1)C1(C(F)(F)F)CC1 (single isomer, unassigned) [Example 540, N-(5,6-difluoro-1-(1-methylcyclobutyl)-1H-benzo[d]imidazol-2-yl)-2-(1-(trifluoromethyl)cyclopropyl)propanamide] | < 1000
CC1(n2c(NC(=O)CC3CC(F)(F)C3(F)F)nc3c(F)cc(C#N)c(F)c32)CCC1 (single isomer, unassigned) [Example 542, N-(6-cyano-4,7-difluoro-1-(1-methylcyclobutyl)-1H-benzo[d]imidazol-2-yl)-2-(2,2,3,3-tetrafluorocyclobutyl)acetamide] | < 1000
CC(C(=O)Nc1nc2c(F)cc(C#N)c(F)c2n1C1(C)CCC1)C1(C(F)(F)F)CC1 (single isomer, unassigned) [Example 543, N-(6-cyano-4,7-difluoro-1-(1-methylcyclobutyl)-1H-benzo[d]imidazol-2-yl)-2-(1-(trifluoromethyl)cyclopropyl)propanamide] | < 1000
CC(C(=O)Nc1nc2c(F)cc(C#N)c(F)c2n1C1(C)CCC1)C1(C(F)(F)F)CC1 (single isomer, unassigned) [Example 544, N-(6-cyano-4,7-difluoro-1-(1-methylcyclobutyl)-1H-benzo[d]imidazol-2-yl)-2-(1-(trifluoromethyl)cyclopropyl)propanamide] | < 1000
CC1(n2c(NC(=O)CC3CC(F)(F)C3(F)F)nc3cc(F)cc(C#N)c32)CCC1 (single isomer, unassigned) [Example 545, N-(7-cyano-5-fluoro-1-(1-methylcyclobutyl)-1H-benzo[d]imidazol-2-yl)-2-(2,2,3,3-tetrafluorocyclobutyl)acetamide] | < 1000
CC1(n2c(NC(=O)CC3CC(F)(F)C3(F)F)nc3cc(F)cc(C#N)c32)CCC1 (single isomer, unassigned) [Example 546, N-(7-cyano-5-fluoro-1-(1-methylcyclobutyl)-1H-benzo[d]imidazol-2-yl)-2-(2,2,3,3-tetrafluorocyclobutyl)acetamide] | < 1000
CC1(n2c(NC(=O)CC3CC(F)(F)C3(F)F)nc3c(F)ccc(C#N)c32)CCC1 (single isomer, unassigned) [Example 548, N-(7-cyano-4-fluoro-1-(1-methylcyclobutyl)-1H-benzo[d]imidazol-2-yl)-2-(2,2,3,3-tetrafluorocyclobutyl)acetamide] | < 1000
CC1(n2c(NC(=O)CC3CC(F)(F)C3(F)F)nc3ccc(F)c(Br)c32)CCC1 (single isomer, unassigned) [Example 549, N-(7-bromo-6-fluoro-1-(1-methylcyclobutyl)-1H-benzo[d]imidazol-2-yl)-2-(2,2,3,3-tetrafluorocyclobutyl)acetamide] | < 1000
N#Cc1ccc2nc(NC(=O)CC3CC(F)(F)C3(F)F)n(-c3ccc(F)cc3)c2c1 (single isomer, unassigned) [Example 551, N-(6-cyano-1-(4-fluorophenyl)-1H-benzo[d]imidazol-2-yl)-2-(2,2,3,3-tetrafluorocyclobutyl)acetamide] | < 1000
COc1cc(C#N)cc2c1nc(NC(=O)CC1CC(F)(F)C1(F)F)n2C1(C)CCC1 (single isomer, unassigned) [Example 553, N-(6-cyano-4-methoxy-1-(1-methylcyclobutyl)-1H-benzo[d]imidazol-2-yl)-2-(2,2,3,3-tetrafluorocyclobutyl)acetamide] | < 1000
CC(C(=O)Nc1nc2ccc(Cl)c(F)c2n1C1(C)CCC1)C1(C(F)(F)F)CC1 (single isomer, unassigned) [Example 556, N-(6-chloro-7-fluoro-1-(1-methylcyclobutyl)-1H-benzo[d]imidazol-2-yl)-2-(1-(trifluoromethyl)cyclopropyl)propanamide] | < 1000
CC(C)(C)n1c(NC(=O)CC2CC(F)(F)C2(F)F)nc2cc(F)c(F)cc21 (single isomer, unassigned) [Example 557, N-(1-(tert-butyl)-5,6-difluoro-1H-benzo[d]imidazol-2-yl)-2-(2,2,3,3-tetrafluorocyclobutyl)acetamide] | < 1000
CC(C)(C)n1c(NC(=O)CC2CC(F)(F)C2(F)F)nc2cc(F)c(F)cc21 (single isomer, unassigned) [Example 558, N-(1-(tert-butyl)-5,6-difluoro-1H-benzo[d]imidazol-2-yl)-2-(2,2,3,3-tetrafluorocyclobutyl)acetamide] | 1000 to 3000
CC1(n2c(NC(=O)CC3CC(F)(F)C3(F)F)nc3cc(F)c(F)c(F)c32)CCC1 (single isomer, unassigned) [Example 559, 2-(2,2,3,3-tetrafluorocyclobutyl)-N-(5,6,7-trifluoro-1-(1-methylcyclobutyl)-1H-benzo[d]imidazol-2-yl)acetamide] | < 1000
CC(C)(C)n1c(NC(=O)CC2CC(F)(F)C2(F)F)nc2c(F)cc(F)cc21 (single isomer, unassigned) [Example 560, N-(1-(tert-butyl)-4,6-difluoro-1H-benzo[d]imidazol-2-yl)-2-(2,2,3,3-tetrafluorocyclobutyl)acetamide] | < 1000
CC(C(=O)Nc1nc2c(F)cc(C#N)cc2n1C1(C)CCC1)C(C)(C)C(F)(F)F (single isomer, unassigned) [Example 562, N-(6-cyano-4-fluoro-1-(1-methylcyclobutyl)-1H-benzo[d]imidazol-2-yl)-4,4,4-trifluoro-2,3,3-trimethylbutanamide] | < 1000
CC1(n2c(NC(=O)CC(C)(C)C(F)(F)F)nc3c(F)cc(C#N)cc32)CCC1 [Example 486, N-(6-cyano-4-fluoro-1-(1-methylcyclobutyl)-1H-benzo[d]imidazol-2-yl)-4,4,4-trifluoro-3,3-dimethylbutanamide] | < 1000
CC(C)(C)CC(=O)Nc1nc2ccc(C3(O)CCC3)c(OC(F)(F)F)c2n1C1CCC1 [Example 487, N-(1-cyclobutyl-6-(1-hydroxycyclobutyl)-7-(trifluoromethoxy)-1H-benzo[d]imidazol-2-yl)-3,3-dimethylbutanamide] | < 1000
CC(C)(C)CC(=O)Nc1nc2ccc(C3(O)CCC3)c(C(F)(F)F)c2n1C1CCC1 [Example 490, N-(1-cyclobutyl-6-(1-hydroxycyclobutyl)-7-(trifluoromethyl)-1H-benzo[d]imidazol-2-yl)-3,3-dimethylbutanamide] | < 1000
CC(C)(O)c1ccc2nc(NC(=O)CC3CC(F)(F)C3(F)F)n(C3(C)CCC3)c2c1 (stereo not drawn) [Example 491, N-(6-(2-hydroxypropan-2-yl)-1-(1-methylcyclobutyl)-1H-benzo[d]imidazol-2-yl)-2-(2,2,3,3-tetrafluorocyclobutyl)acetamide] | < 1000
